# In BindingDB's records for doi:10.1021/jm0001626 (Signal Pharmaceuticals, 2000):
# Target: Transcription factor Jun (Homo sapiens, UniProt P05412)
# Experiment: Concentration required to inhibit activator protein-1(AP-1) mediated transcriptional activation in human Jurkat T-cells
# Transcription factor Jun, sequence (P05412 whole entry): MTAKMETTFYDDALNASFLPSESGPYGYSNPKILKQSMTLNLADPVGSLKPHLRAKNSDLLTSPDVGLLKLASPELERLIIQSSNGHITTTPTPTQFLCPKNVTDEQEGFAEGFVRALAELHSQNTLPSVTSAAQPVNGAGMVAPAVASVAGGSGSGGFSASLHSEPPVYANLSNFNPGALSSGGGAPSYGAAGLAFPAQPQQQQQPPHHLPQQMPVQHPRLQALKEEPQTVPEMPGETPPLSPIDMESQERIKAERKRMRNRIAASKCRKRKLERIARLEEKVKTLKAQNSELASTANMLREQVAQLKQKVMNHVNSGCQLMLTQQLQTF
row,SMILES,IC50 [µM]
1,"O=C(Nc1cc(C(F)(F)F)cc(C(F)(F)F)c1)c1cnc(C(F)(F)F)nc1 [2-Trifluoromethyl-pyrimidine-5-carboxylic acid (3,5-bis-trifluoromethyl-phenyl)-amide]",> 10
2,"N#Cc1ncc(C(=O)Nc2cc(C(F)(F)F)cc(C(F)(F)F)c2)c(C(F)(F)F)n1 [2-Cyano-4-trifluoromethyl-pyrimidine-5-carboxylic acid (3,5-bis-trifluoromethyl-phenyl)-amide]",> 10
3,"Cc1ncc(C(=O)Nc2cc(C(F)(F)F)cc(C(F)(F)F)c2)c(C(F)(F)F)n1 [2-Methyl-4-trifluoromethyl-pyrimidine-5-carboxylic acid (3,5-bis-trifluoromethyl-phenyl)-amide]",> 10
4,"Cc1nc(C(F)(F)F)ncc1C(=O)Nc1cc(C(F)(F)F)cc(C(F)(F)F)c1 [4-Methyl-2-trifluoromethyl-pyrimidine-5-carboxylic acid (3,5-bis-trifluoromethyl-phenyl)-amide]",> 10
5,"O=C(Nc1cc(C(F)(F)F)cc(C(F)(F)F)c1)c1cnc(-c2ccccc2)nc1 [2-Phenyl-pyrimidine-5-carboxylic acid (3,5-bis-trifluoromethyl-phenyl)-amide]",> 10
6,"O=C(Nc1cc(C(F)(F)F)cc(C(F)(F)F)c1)c1ccc(Cl)cc1C(F)(F)F [N-(3,5-Bis-trifluoromethyl-phenyl)-4-chloro-2-trifluoromethyl-benzamide]",> 30
7,"O=C(Nc1cc(C(F)(F)F)cc(C(F)(F)F)c1)c1cnc(Cl)nc1-c1cccs1 [2-Chloro-4-thiophen-2-yl-pyrimidine-5-carboxylic acid (3,5-bis-trifluoromethyl-phenyl)-amide]",8
8,"O=C(Nc1cc(C(F)(F)F)cc(C(F)(F)F)c1)c1cnc(C(F)(F)F)nc1C(F)(F)F [2,4-Bis-trifluoromethyl-pyrimidine-5-carboxylic acid (3,5-bis-trifluoromethyl-phenyl)-amide]",> 10
9,"O=C(Nc1cc(C(F)(F)F)cc(C(F)(F)F)c1)c1cnc(Cl)nc1C(F)(F)C(F)(F)F [2-Chloro-4-pentafluoroethyl-pyrimidine-5-carboxylic acid (3,5-bis-trifluoromethyl-phenyl)-amide]",0.6
10,"O=C(Nc1cc(C(F)(F)F)cc(C(F)(F)F)c1)c1cnc(C(F)(F)F)nc1Cl [4-Chloro-2-trifluoromethyl-pyrimidine-5-carboxylic acid (3,5-bis-trifluoromethyl-phenyl)-amide]",> 10

# More lines, now with the values ahead:
row,IC50 [µM],SMILES
1,0.5,"CCCc1nc(Cl)ncc1C(=O)Nc1cc(C(F)(F)F)cc(C(F)(F)F)c1 [2-Chloro-4-propyl-pyrimidine-5-carboxylic acid (3,5-bis-trifluoromethyl-phenyl)-amide]"
2,0.3,"CCc1nc(Cl)ncc1C(=O)Nc1cc(C(F)(F)F)cc(C(F)(F)F)c1 [2-Chloro-4-ethyl-pyrimidine-5-carboxylic acid (3,5-bis-trifluoromethyl-phenyl)-amide]"
3,> 10,"Cc1cc(C(=O)Nc2cc(C(F)(F)F)cc(C(F)(F)F)c2)nc(Cl)n1 [2-Chloro-6-methyl-pyrimidine-4-carboxylic acid (3,5-bis-trifluoromethyl-phenyl)-amide]"
4,0.3,"O=C(Nc1cc(C(F)(F)F)cc(C(F)(F)F)c1)c1cnc(Cl)nc1 [2-Chloro-pyrimidine-5-carboxylic acid (3,5-bis-trifluoromethyl-phenyl)-amide]"
5,> 10,"O=C(Nc1cc(C(F)(F)F)cc(C(F)(F)F)c1)c1cc(Cl)nc(Cl)n1 [2,6-Dichloro-pyrimidine-4-carboxylic acid (3,5-bis-trifluoromethyl-phenyl)-amide]"
6,> 10,"O=C(Nc1cc(C(F)(F)F)cc(C(F)(F)F)c1)c1cc(C(F)(F)F)nc(Cl)n1 [2-Chloro-6-trifluoromethyl-pyrimidine-4-carboxylic acid (3,5-bis-trifluoromethyl-phenyl)-amide]"
